Among the data in US12084437B2, “Halo-substituted piperidines as orexin receptor modulators” (AstraZeneca AB, priority 2016, dated 2024) are IC50 values, retold here.

Where “and” joins values, the source holds several entries; their conditions need not be identical. Equal entries are not always repeated. Where only a bound is given, the exact number is not on record here.

The target in one test is T1, OX2 (Homo sapiens, UniProt O43614).
T1 construct: expressed in transfected cells; host or cells: CHO (CHO-OX2)
T1 sequence (O43614 1-444): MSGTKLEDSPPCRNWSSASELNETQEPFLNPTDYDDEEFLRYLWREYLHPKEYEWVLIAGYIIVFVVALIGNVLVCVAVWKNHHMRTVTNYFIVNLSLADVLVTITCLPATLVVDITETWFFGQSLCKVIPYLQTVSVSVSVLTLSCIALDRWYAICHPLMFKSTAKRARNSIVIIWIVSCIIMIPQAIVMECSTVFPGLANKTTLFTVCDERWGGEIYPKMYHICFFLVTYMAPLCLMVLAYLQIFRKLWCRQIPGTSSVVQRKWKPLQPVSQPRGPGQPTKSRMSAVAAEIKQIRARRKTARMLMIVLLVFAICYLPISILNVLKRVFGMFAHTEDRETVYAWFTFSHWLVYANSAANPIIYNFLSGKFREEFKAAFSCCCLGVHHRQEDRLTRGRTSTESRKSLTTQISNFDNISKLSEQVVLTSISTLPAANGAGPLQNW
Briefly: Orexin receptor cell-based functional assay, [Ca2+]i by FLIPR, CHO-OX2 cells. As to conditions: FLIPR calcium, antagonism of EC90 of [OX]. On the procedure: (§1) Measurement of [Ca^2+]i using a FLIPR: CHO-OX1 or CHO-OX2 cells were seeded into black-walled clear-base 384-well plates (Corning, catalog #3712) at a density of 20,000 cells per well in F12-K medium supplemented with 10% FBS and then incubated in a 5% CO2, 37° C. incubator overnight to reach 90% confluency. The cells were incubated with equal volume of calcium6 loading buffer (Molecular Devices, Inc.) containing 2.5 mM probenecid at 37° C. for 2 h, followed by test compounds (dose-range 0.1 nM-10 μM) for another 30 min. The plates were then placed into a FLIPR (Molecular Devices, Inc.) to monitor fluorescence (λ excitation 488 nm, λ emission 540 nm) before and after the addition of EC90 of [OX]. Results for exemplary compounds of Formulae (I), (Ia), (Ib), (II), (IIa), (III), (IIIa), (IV), (IVa), (V), or (Va) are shown in Table 3.

The target of the next test is T2, OX1 (Homo sapiens, UniProt O43613).
T2 construct: expressed in transfected cells; host or cells: CHO (CHO-OX1)
T2 sequence (O43613 1-425): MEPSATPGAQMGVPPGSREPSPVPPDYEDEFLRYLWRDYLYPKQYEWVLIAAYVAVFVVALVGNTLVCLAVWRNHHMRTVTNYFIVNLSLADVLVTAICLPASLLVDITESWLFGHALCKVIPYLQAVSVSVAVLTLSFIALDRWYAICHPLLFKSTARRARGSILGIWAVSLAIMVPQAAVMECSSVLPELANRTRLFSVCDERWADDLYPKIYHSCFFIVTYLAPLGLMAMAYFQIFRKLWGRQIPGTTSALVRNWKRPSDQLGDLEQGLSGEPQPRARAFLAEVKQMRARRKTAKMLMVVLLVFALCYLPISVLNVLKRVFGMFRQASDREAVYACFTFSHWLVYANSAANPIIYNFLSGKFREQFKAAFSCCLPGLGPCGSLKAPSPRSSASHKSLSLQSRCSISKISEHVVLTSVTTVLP
Nature of the test: Orexin receptor cell-based functional assay, [Ca2+]i by FLIPR, CHO-OX1 cells. As to conditions: FLIPR calcium, antagonism of EC90 of [OX], read-out: OXI, IC50. The procedure:
as §1, with “[OX].” for “[OX]. Results for exemplary compounds of Formulae (I), (Ia), (Ib), (II), (IIa), (III), (IIIa), (IV), (IVa), (V), or (Va) are shown in Table 3.”

A word on the IC50: it is the concentration that inhibits the measured activity by half. `C[C@@H]1CC(F)(F)CN(C(=O)c2nn(C)cc2-c2cccc(F)c2)[C@@H]1CNc1ncc(C(F)(F)F)cn1` [Compound 25]: the results for the IC50 at OX2 and on OX1 were over 5 µM and 0.004 µM, respectively.
With `Cc1cccc(-c2cn(C)nc2C(=O)N2CC(F)(F)C[C@@H](C)[C@H]2CNc2ncc(C(F)(F)F)cn2)c1` [Compound 26], the values for the IC50 at OX2 and on OX1 were over 5 µM and 0.004 µM, respectively.
For `COc1cccc(-c2cn(C)nc2C(=O)N2CC(F)(F)C[C@@H](C)[C@H]2CNc2ncc(C(F)(F)F)cn2)c1` [Compound 29], the IC50 on OX2 is over 5 µM; on OX1, 0.004 µM.
Consider `C[C@@H]1CC(F)(F)CN(C(=O)c2nn(C)cc2-c2ccc(F)cc2)[C@@H]1CNc1ncc(Cl)cn1` [Compound 31], for which the IC50 on OX2 is over 5 µM; on OX1 it was 0.004 µM.
Turning to `Cc1ccc(-c2cn(C)nc2C(=O)N2CC(F)(F)C[C@@H](C)[C@H]2CNc2ncc(C(F)(F)F)cn2)cc1` [Compound 32], the IC50 was over 5 µM at OX2; 0.012 µM and 0.006 µM on OX1.
On to `C[C@@H]1CC(F)(F)CN(C(=O)c2nn(C)cc2-c2ccc(Cl)cc2)[C@@H]1CNc1ncc(C(F)(F)F)cn1` [Compound 33], for which the IC50 on OX2 was 4.7 µM; at OX1, 0.004 µM.
`C[C@@H]1CC(F)(F)CN(C(=O)c2nn(C)cc2-c2ccccn2)[C@@H]1CNc1ncc(C(F)(F)F)cn1` [Compound 36]: the IC50 at OX2 is over 5 µM; at OX1, 0.019 µM.
Consider `Cc1cccnc1-c1cn(C)nc1C(=O)N1CC(F)(F)C[C@@H](C)[C@H]1CNc1ncc(C(F)(F)F)cn1` [Compound 39], for which the IC50 at OX2 is over 5 µM; on OX1, 1.16 µM.
For `CCc1cnc(NC[C@@H]2[C@H](C)CC(F)(F)CN2C(=O)c2nn(C)cc2-c2ccc(F)cn2)nc1` [Compound 41], in that order: over 5 µM and over 5 µM.
Consider `C[C@@H]1CC(F)(F)CN(C(=O)c2nn(C)cc2-c2ccc(F)cn2)[C@@H]1CNc1ncc(C(F)(F)F)cn1` [Compound 42], for which the IC50 was over 5 µM at OX2 and over 1 µM at OX1.
`Cc1ccc(-c2cn(C)nc2C(=O)N2CC(F)(F)C[C@@H](C)[C@H]2CNc2ncc(C(F)(F)F)cn2)nc1` [Compound 44]: the IC50 was over 5 µM at OX2 and 0.01 µM on OX1.
For `COc1ccc(-c2cn(C)nc2C(=O)N2CC(F)(F)C[C@@H](C)[C@H]2CNc2ncc(C(F)(F)F)cn2)nc1` [Compound 45], in that order: over 5 µM and 0.047 µM.
For `Cc1cccc(-c2cn(C)nc2C(=O)N2CC(F)(F)C[C@@H](C)[C@H]2CNc2ncc(C(F)(F)F)cn2)n1` [Compound 46], in that order: over 5 µM and 0.007 µM.
On to `Cc1nc(-c2ccccc2)c(C(=O)N2CC(F)(F)C[C@@H](C)[C@H]2CNc2ncc(C(F)(F)F)cn2)s1` [Compound 48], for which the IC50 on OX2 was over 5 µM; at OX1, 0.607 µM.
Consider `Cc1nc(C(=O)N2CC(F)(F)C[C@@H](C)[C@H]2CNc2ncc(C(F)(F)F)cn2)c(-c2ncccn2)s1` [Compound 49], for which the IC50 is over 5 µM on OX2 and 0.006 µM at OX1.
For `Cc1nc(C(=O)N2CC(F)(F)C[C@@H](C)[C@H]2CNc2ncc(Cl)cn2)c(-c2ncccn2)s1` [Compound 50], in that order: over 5 µM and 0.02 µM.
With `Cc1ccc(-c2ccccc2)c(C(=O)N2CC(F)(F)C[C@@H](C)[C@H]2CNc2ncc(C(F)(F)F)cn2)n1` [Compound 51], the IC50 is over 5 µM at OX2 and 0.004 µM on OX1.
Turning to `Cc1ccc(-c2ccccc2)c(C(=O)N2CC(F)(F)C[C@@H](C)[C@H]2CNc2ncc(Cl)cn2)n1` [Compound 52], the IC50 on OX2 is over 5 µM; at OX1, 0.009 µM.
Regarding `C[C@@H]1CC(F)(F)CN(C(=O)c2cc(C#N)ccc2-c2ccc(F)cc2)[C@@H]1CNc1ncc(Cl)cn1` [Compound 53], the IC50 at OX2 was over 5 µM; at OX1, 0.029 µM.
For the compound `C[C@@H]1CC(F)(F)CN(C(=O)c2cc(F)ccc2-c2ncccn2)[C@@H]1CNc1ncc(C(F)(F)F)cn1` [Compound 54], the IC50 was over 5 µM at OX2 and 0.043 µM on OX1.
For `Cc1ccc(-c2ncccn2)c(C(=O)N2CC(F)(F)C[C@@H](C)[C@H]2CNc2ncc(C(F)(F)F)cn2)c1` [Compound 55, ((2S,3R)-5,5-difluoro-3-methyl-2-(((5-(trifluoromethyl)pyrimidin-2-yl)amino)methyl)piperidin-1-yl)(5-methyl-2-(pyrimidin-2-yl)phenyl)methanone], in that order: over 5 µM and 0.03 µM.
With `C[C@@H]1CC(F)(F)CN(C(=O)c2cc(Cl)ccc2-c2ncccn2)[C@@H]1CNc1ncc(C(F)(F)F)cn1` [Compound 56, (5-chloro-2-(pyrimidin-2-yl)phenyl)((2S,3R)-5,5-difluoro-3-methyl-2-(((5-(trifluoromethyl)pyrimidin-2-yl)amino)methyl)piperidin-1-yl)methanone], the IC50 at OX2 was over 5 µM; on OX1 it was 0.007 µM.
In the case of `C[C@@H]1CC(F)(F)CN(C(=O)c2cc(Cl)ccc2-c2ncccn2)[C@@H]1CNc1ncc(Cl)cn1` [Compound 57, (5-chloro-2-(pyrimidin-2-yl)phenyl)((2S,3R)-2-(((5-chloropyrimidin-2-yl)amino)methyl)-5,5-difluoro-3-methylpiperidin-1-yl)methanone], the IC50 at OX2 was over 5 µM; at OX1, 0.024 µM.
Consider `Cc1ccc(-c2sc(C)nc2C(=O)N2CC(F)(F)C[C@@H](C)[C@H]2CNc2ncc(C(F)(F)F)cn2)cc1` [Compound 64], for which the IC50 at OX2 is over 5 µM; at OX1, 0.004 µM.
For `Cc1nc(C(=O)N2CC(F)(F)C[C@@H](C)[C@H]2CNc2ncc(C(F)(F)F)cn2)c(-c2ccccc2)s1` [Compound 65], in that order: over 5 µM and 0.002 µM.
On to `Cc1nc(C(=O)N2CC(F)(F)C[C@@H](C)[C@H]2CNc2ncc(C(F)(F)F)cn2)c(-c2ccccc2F)s1` [Compound 66], for which the IC50 at OX2 came to 2.08 µM; on OX1, 0.001 µM.
As for `Cc1nc(C(=O)N2CC(F)(F)C[C@@H](C)[C@H]2CNc2ncc(C(F)(F)F)cn2)c(-c2cccc(F)c2)s1` [Compound 67], the IC50 on OX2 was 1.11 µM; on OX1, 0.005 µM.
As for `Cc1nc(C(=O)N2CC(F)(F)C[C@@H](C)[C@H]2CNc2ncc(C(F)(F)F)cn2)c(-c2ccc(F)cc2)s1` [Compound 68, ((2S,3R)-5,5-difluoro-3-methyl-2-(((5-(trifluoromethyl)pyrimidin-2-yl)amino)methyl)piperidin-1-yl)(5-(4-fluorophenyl)-2-methylthiazol-4-yl)methanone], the IC50 is over 5 µM at OX2 and 0.008 µM on OX1.
For the compound `Cc1nc(C(=O)N2CC(F)(F)C[C@@H](C)[C@H]2CNc2ncc(Cl)cn2)c(-c2ccc(F)cc2)s1` [Compound 69], the half-inhibitory concentration (IC50) at OX2 was over 5 µM; on OX1, 0.009 µM.
In the case of `Cc1nc(C(=O)N2CC(F)(F)C[C@@H](C)[C@H]2CNc2ncc(C(F)(F)F)cn2)c(-c2ccccn2)s1` [Compound 70], the figures for the IC50 on OX2 and at OX1 were over 5 µM and 0.005 µM, respectively.
For `Cc1nc(C(=O)N2CC(F)(F)C[C@@H](C)[C@H]2CNc2ncc(C(F)(F)F)cn2)c(-c2ccc(F)cn2)s1` [Compound 72], in that order: over 5 µM and 0.237 µM.
As for `Cc1ccnc(-c2sc(C)nc2C(=O)N2CC(F)(F)C[C@@H](C)[C@H]2CNc2ncc(C(F)(F)F)cn2)c1` [Compound 74], the IC50 at OX2 was over 5 µM; on OX1, 0.006 µM.
